According to patent US6958215B1, “Methods and compositions for inhibition of RNA splicing” (priority 1999, dated 2005):
[np] = N3'→P5' phosphoramidate internucleoside linkage; d = 2'-deoxy (DNA); r = 2'-OH (RNA)

Legend:
[1] = system: P. carinii rRNA precursor (P-h) containing a Group I intron; assay: Oligonucleotide concentration dependence of cis- and trans-splicing, 3′ end radiolabeled P-h precursor; assay type: biochemical, Pneumocystis carinii; conditions: up to 30 μM oligonucleotide, 4 mM Mg2+
[2] = system: P. carinii rRNA precursor (P-h) containing a Group I intron; assay: Inhibition of self-splicing, internally radiolabeled P-h precursor, gel assay; assay type: biochemical, Pneumocystis carinii; conditions: 2 mM Mg2+, up to 30 μM oligonucleotide, 1 mM pG
[3] = system: P. carinii rRNA precursor (P-h) containing a Group I intron; assay: Fate of 5′ end radiolabeled hexamer with unlabeled P-h precursor (trans-splicing); assay type: biochemical, Pneumocystis carinii; conditions: 0, 2, 3, or 15 mM Mg2+
Experimental: The fate of the hexamers, (dA)n(dT)n(dG)n(dA)n(dC)n(rU) [Seq. ID No:1] and (dC)n(dA)n(dG)n(dT)n(dA)n(rU) [Seq. ID No:5], was also analyzed using radiolabeled hexamer and unlabeled precursor in the presence and absence of pG colactor. Approximately 300 nM unlabeled P-h precursor was reannealed at 55° C. in 3 μL of the appropriate buffer for 5 min and slow cooled to 37° C. A 3 μL solution of […] 5′ end radiolabeled hexamer in the same buffer at 37° C. was added and the reaction was allowed to proceed for 1 h. The reaction was quenched by the addition of 6 μL of 2× stop buffer and the reactants and products were separated on a 10% polyacrylamide, 8 M urea gel. The gel was dried under vacuum and the bands quantified with a Molecular Dynamics phosphorimager.

C-10/1x ribozyme = assay: Binding to C-10/1x ribozyme, competitive band-shift native electrophoresis; design: species or system Candida albicans; conditions: H15Mg buffer; for Binding to C-10/1x ΔG*37,C-10/1x: calculated from Kd, T = 310 K; for Tertiary Stability BETI (binding enhanced by tertiary interactions): calculated using Kd values; for Tertiary Stability ααG°37,BETI: difference in ΔG°37 for binding to C-10/1x and r(GGAGGC)
Experimental: C-10/1x is a Candida albicans rRNA Group I ribozyme. Dissociation constants for 5′ exon oligonucleotide mimics which bind to the C-10/1x ribozyme were measured by competitive band-shift native electrophoresis using methods described in Testa et al., Biochemistry 37:9379-9385 (1998). The results for a variety of oligonucleotides complementary or containing a one base mismatch to the C-10/1x 5′ exon guide sequence are shown in Table 2.

r(GGAGGC) = assay: Base-pairing to r(GGAGGC), thermodynamic melts; assay type: binding; conditions: H15Mg buffer; for Kd: calculated from ΔG°37, read-out: Binding to r(GGAGGC) Kd,B.P.

Row | Substance | formation of trans-spliced product [1] | increase in the 5′ exon-intron product [2] | reactivity of 5′ radiolabeled hexamer with unlabeled precursor [3] | Kd (C-10/1x ribozyme) [µM] | Binding to C-10/1x ΔG*37,C-10/1x (C-10/1x ribozyme) [kcal/mol] | Tertiary Stability BETI (binding enhanced by tertiary interactions) (C-10/1x ribozyme) | Tertiary Stability ααG°37,BETI (C-10/1x ribozyme) [kcal/mol] | Binding to r(GGAGGC) ΔG°37,B.P. (r(GGAGGC)) [kcal/mol] | Kd (r(GGAGGC)) [µM]
1 | (dC)n(dA)n(dG)n(dT)n(dA)n(rU) (CAGTAU; sugars from the 5' end d5 r1, all [np], methylation of C not given here) [reference compound] | not formed | does not occur | not reactive | – | – | – | – | – | –
2 | r(GACUCU) [reference compound] | – | – | – | 0.0069 | -11.6 | 4800000 | -9.5 | -2.1 | 600
3 | r(GCCUCU) [reference compound] | – | – | – | 0.0007 | -13.0 | 1500 | -4.5 | -8.5 | 100
